Measured values as given in PubChem BioAssay AID1963832 (Molecular Pharmacology Branch, DTP, NCI, 2024).

Test system: 885724-159-R-J1-PDC complex spheroid viability
Assay: Anticancer human tumor 885724-159-R-J1-PDC patient-derived pancreatic adenocarcinoma cell line growth inhibition [POLQ]
Details: for IC50: curve of first compound; for viability, T/C: stronger effect = lower value
Method in brief: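 PDC + HUVEC + MSC complex spheroids; POLQ inhibitors ± partner drugs; top conc. at/near clinical Cmax, else 10 microM (SN-38 1 microM), half-log dilutions; 37 degrees C, 5% CO2.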

[1] = second compound 0.0316 µM, first compound 0.0316 µM
[2] = second compound 0.0316 µM, first compound 0.1 µM
[3] = second compound 0.0316 µM, first compound 0.316 µM
[4] = second compound 0.0316 µM, first compound 1 µM
[5] = second compound 0.0316 µM, first compound 3.16 µM
[6] = second compound 0.0316 µM, first compound 10 µM
[7] = second compound 0.1 µM, first compound 0.0316 µM
[8] = second compound 0.1 µM, first compound 0.1 µM
[9] = second compound 0.1 µM, first compound 0.316 µM
[10] = second compound 0.1 µM, first compound 1 µM
[11] = second compound 0.1 µM, first compound 3.16 µM
[12] = second compound 0.1 µM, first compound 10 µM
[13] = second compound 0.316 µM, first compound 0.0316 µM
[14] = second compound 0.316 µM, first compound 0.1 µM
[15] = second compound 0.316 µM, first compound 0.316 µM
[16] = second compound 0.316 µM, first compound 1 µM
[17] = second compound 0.316 µM, first compound 3.16 µM
[18] = second compound 0.316 µM, first compound 10 µM
[19] = second compound 1 µM, first compound 0.0316 µM
[20] = second compound 1 µM, first compound 0.1 µM
[21] = second compound 1 µM, first compound 0.316 µM
[22] = second compound 1 µM, first compound 1 µM
[23] = second compound 1 µM, first compound 3.16 µM
[24] = second compound 1 µM, first compound 10 µM
[25] = second compound 3.16 µM, first compound 0.0316 µM
[26] = second compound 3.16 µM, first compound 0.1 µM
[27] = second compound 3.16 µM, first compound 0.316 µM
[28] = second compound 3.16 µM, first compound 1 µM
[29] = second compound 3.16 µM, first compound 3.16 µM
[30] = second compound 3.16 µM, first compound 10 µM
[31] = second compound 10 µM, first compound 0.0316 µM
[32] = second compound 10 µM, first compound 0.1 µM
[33] = second compound 10 µM, first compound 0.316 µM
[34] = second compound 10 µM, first compound 1 µM
[35] = second compound 10 µM, first compound 3.16 µM
[36] = second compound 10 µM, first compound 10 µM
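Also: spheroids exposed to compounds for 7 days.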

## C=CC(=O)N1CCN(c2nc(=O)n(-c3c(C)ccnc3C(C)C)c3nc(-c4c(O)cccc4F)c(F)cc23)C(C)C1 (stereo unspecified) + COC1C(OC(N)=O)C(O)C(Oc2ccc3c(O)c(NC(=O)c4ccc(O)c(CC=C(C)C)c4)c(=O)oc3c2C)OC1(C)C
Second compound 0.0316 µM
  IC50: > 10 µM
Second compound 0.1 µM
  IC50: > 10 µM
Second compound 0.316 µM
  IC50: > 10 µM
Second compound 1 µM
  IC50: > 10 µM
Second compound 3.16 µM
  IC50: > 10 µM
Second compound 10 µM
  IC50: > 10 µM
[1]
  viability, T/C: 104%
[2]
  viability, T/C: 97.9%
[3]
  viability, T/C: 110%
[4]
  viability, T/C: 113%
[5]
  viability, T/C: 114%
[6]
  viability, T/C: 91.7%
[7]
  viability, T/C: 109%
[8]
  viability, T/C: 91.9%
[9]
  viability, T/C: 106%
[10]
  viability, T/C: 108%
[11]
  viability, T/C: 115%
[12]
  viability, T/C: 105%
[13]
  viability, T/C: 107%
[14]
  viability, T/C: 115%
[15]
  viability, T/C: 104%
[16]
  viability, T/C: 112%
[17]
  viability, T/C: 123%
[18]
  viability, T/C: 95.1%
[19]
  viability, T/C: 118%
[20]
  viability, T/C: 104%
[21]
  viability, T/C: 112%
[22]
  viability, T/C: 106%
[23]
  viability, T/C: 114%
[24]
  viability, T/C: 83.2%
[25]
  viability, T/C: 102%
[26]
  viability, T/C: 108%
[27]
  viability, T/C: 104%
[28]
  viability, T/C: 116%
[29]
  viability, T/C: 124%
[30]
  viability, T/C: 104%
[31]
  viability, T/C: 96%
[32]
  viability, T/C: 93.7%
[33]
  viability, T/C: 106%
[34]
  viability, T/C: 110%
[35]
  viability, T/C: 111%
[36]
  viability, T/C: 91%

## CC1COCCN1c1cc(C2(O)CC3CCC(C2)O3)c2cnn(-c3ccn[nH]3)c2n1 (stereo unspecified) + COC1C(OC(N)=O)C(O)C(Oc2ccc3c(O)c(NC(=O)c4ccc(O)c(CC=C(C)C)c4)c(=O)oc3c2C)OC1(C)C
Second compound 0.0316 µM
  IC50: 0.139 µM
Second compound 0.1 µM
  IC50: 0.15 µM
Second compound 0.316 µM
  IC50: 0.0982 µM
Second compound 1 µM
  IC50: 0.139 µM
Second compound 3.16 µM
  IC50: 0.096 µM
Second compound 10 µM
  IC50: 0.102 µM
[1]
  viability, T/C: 74.7%
[2]
  viability, T/C: 49.8%
[3]
  viability, T/C: 38.8%
[4]
  viability, T/C: 41.8%
[5]
  viability, T/C: 31.5%
[6]
  viability, T/C: 23.2%
[7]
  viability, T/C: 73.3%
[8]
  viability, T/C: 51.4%
[9]
  viability, T/C: 40%
[10]
  viability, T/C: 41.4%
[11]
  viability, T/C: 31.9%
[12]
  viability, T/C: 24.7%
[13]
  viability, T/C: 63.1%
[14]
  viability, T/C: 50.4%
[15]
  viability, T/C: 39%
[16]
  viability, T/C: 34.8%
[17]
  viability, T/C: 32.5%
[18]
  viability, T/C: 28.6%
[19]
  viability, T/C: 75.1%
[20]
  viability, T/C: 52%
[21]
  viability, T/C: 39.7%
[22]
  viability, T/C: 38.1%
[23]
  viability, T/C: 31.2%
[24]
  viability, T/C: 25.4%
[25]
  viability, T/C: 68.1%
[26]
  viability, T/C: 44.8%
[27]
  viability, T/C: 42.5%
[28]
  viability, T/C: 35.8%
[29]
  viability, T/C: 31.8%
[30]
  viability, T/C: 26.4%
[31]
  viability, T/C: 61.1%
[32]
  viability, T/C: 50.5%
[33]
  viability, T/C: 40.8%
[34]
  viability, T/C: 34.5%
[35]
  viability, T/C: 34.9%
[36]
  viability, T/C: 26.3%

## CCc1cc2c(N3CCc4c(cc(Cn5ccnc5)cc4-c4cn(C)nc4C(F)(F)F)C3=O)cc(C)nc2c(OC)n1 + COC1C(OC(N)=O)C(O)C(Oc2ccc3c(O)c(NC(=O)c4ccc(O)c(CC=C(C)C)c4)c(=O)oc3c2C)OC1(C)C
Second compound 0.0316 µM
  IC50: > 10 µM
Second compound 0.1 µM
  IC50: > 10 µM
Second compound 0.316 µM
  IC50: > 10 µM
Second compound 1 µM
  IC50: > 10 µM
Second compound 3.16 µM
  IC50: > 10 µM
Second compound 10 µM
  IC50: > 10 µM
[1]
  viability, T/C: 87.4%
[2]
  viability, T/C: 79.7%
[3]
  viability, T/C: 75.3%
[4]
  viability, T/C: 68.9%
[5]
  viability, T/C: 84.7%
[6]
  viability, T/C: 66.2%
[7]
  viability, T/C: 89%
[8]
  viability, T/C: 78.6%
[9]
  viability, T/C: 77%
[10]
  viability, T/C: 77.1%
[11]
  viability, T/C: 69.7%
[12]
  viability, T/C: 70.4%
[13]
  viability, T/C: 88.7%
[14]
  viability, T/C: 71.8%
[15]
  viability, T/C: 90.4%
[16]
  viability, T/C: 75.4%
[17]
  viability, T/C: 79.2%
[18]
  viability, T/C: 67.6%
[19]
  viability, T/C: 80%
[20]
  viability, T/C: 73.5%
[21]
  viability, T/C: 79.9%
[22]
  viability, T/C: 82.5%
[23]
  viability, T/C: 74.5%
[24]
  viability, T/C: 71.9%
[25]
  viability, T/C: 80.3%
[26]
  viability, T/C: 72.9%
[27]
  viability, T/C: 82.6%
[28]
  viability, T/C: 76.7%
[29]
  viability, T/C: 80.1%
[30]
  viability, T/C: 75.2%
[31]
  viability, T/C: 78.4%
[32]
  viability, T/C: 80.9%
[33]
  viability, T/C: 77.2%
[34]
  viability, T/C: 75.1%
[35]
  viability, T/C: 75.9%
[36]
  viability, T/C: 72%
